According to patent US7687457B2, “Cyclic molecular framework and derivatives thereof” (The University of Queensland, priority 1999, dated 2010):
Where a SMILES comes first, the peptide text is derived from it.

System: erythrocytes
Experiment: haemolytic activity, lysis of erythrocytes
Format: cell-based
Details: haemolysis; read-out: concentration causing 50% lysis of erythrocytes

Compound: CC[C@H](C)[C@@H]1NC(=O)CNC(=O)[C@H](CC(N)=O)NC(=O)[C@H](Cc2ccc(O)cc2)NC(=O)[C@@H]2CSSC[C@@H]3NC(=O)[C@@H]4CCCN4C(=O)[C@H]([C@@H](C)CC)NC(=O)[C@H](Cc4ccc(O)cc4)NC(=O)[C@H](C(C)C)NC(=O)[C@@H]4CSSC[C@H](NC(=O)[C@H](CO)NC(=O)[C@H](CSSC[C@H](NC(=O)[C@@H]5CCCN5C1=O)C(=O)N[C@@H](C)C(=O)N[C@@H](CCC(=O)O)C(=O)N[C@@H](CO)C(=O)N4)NC(=O)CNC(=O)[C@H](CC(C)C)NC(=O)[C@H](CC(C)C)NC(=O)[C@H](C)NC(=O)[C@H]([C@@H](C)O)NC(=O)[C@H](C(C)C)NC(=O)[C@H]([C@@H](C)O)NC3=O)C(=O)N[C@@H](CO)C(=O)N[C@@H](CC(N)=O)C(=O)N[C@@H](CCCNC(=N)N)C(=O)N[C@@H](C(C)C)C(=O)N2 [cycloviolacin 01] (HELM PEPTIDE1{A.E.S.C.V.Y.I.P.C.T.V.T.A.L.L.G.C.S.C.S.N.R.V.C.Y.N.G.I.P.C}$PEPTIDE1,PEPTIDE1,4:R3-19:R3|PEPTIDE1,PEPTIDE1,9:R3-24:R3|PEPTIDE1,PEPTIDE1,17:R3-30:R3|PEPTIDE1,PEPTIDE1,1:R1-30:R2$$$V2.0)
- EC50: ~20 µM
